# Data from patent US8513260B2, “Pyrazinylpyrazoles” (Bayer CropScience AG, priority 2009, dated 2013).
# Read-outs that look alike come from different tables or passages of the source.
# Tests used:
# [1] = logP by HPLC on reversed-phase columns (C 18), EEC Directive 79/831 Annex V.A8; type: physicochemical; conditions: reversed-phase C18 HPLC column, read-out: log P
# Text: [table] The calibration is effected with unbranched alkan-2-ones (having 3 to 16 carbon atoms) with known logP values (logP values determined on the basis of the retention times by linear interpolation between two successive alkanones).
# [2] = test system: adult engorged Boophilus microplus females of the SP-resistant Parkhurst strain; assay: Boophilus microplus (dip); type: in vivo; conditions: after 7 days, laying of fertile eggs; for pest or weed control at 100 ppm: Rhipicephalus microplus, 168 h, read-out: efficacy; for efficacy: 100 ppm
# Procedure: Boophilus microplus (dip)
# Test animals: adult engorged Boophilus microplus females of the SP-resistant Parkhurst strain
# Solvent: dimethyl sulphoxide
# 10 mg of active ingredient are dissolved in 0.5 ml of dimethyl sulphoxide. For the purpose of preparing a suitable formulation, the active ingredient solution is diluted with water to the concentration desired in each case. This active ingredient preparation is pipetted into tubes. 8-10 ticks are transferred into a further tube with holes. The tube is immersed into the active ingredient formulation, and all ticks are completely wetted. After the liquid has run out, the ticks are transferred onto filter discs in plastic dishes and stored in a climate-controlled room. The activity is assessed after 7 days by laying of fertile eggs. Eggs whose fertility is not outwardly visible are stored in glass tubes in a climate-controlled cabinet until the larvae hatch. Efficacy of 100% means that none of the ticks has laid any fertile eggs.
# Boophilus microplus = Boophilus microplus test (BOOPMI injection); type: in vivo; conditions: 20 μg animal, injection into the abdomen, after 7 days, laying of fertile eggs; for pest or weed control at 0.02 mg: Rhipicephalus microplus, 168 h, read-out: efficacy
# Procedure: Boophilus microplus Test (BOOPMI Injection) Solvent: dimethyl sulphoxide To prepare an appropriate active ingredient formulation, 10 mg of active ingredient are mixed with 0.5 ml of solvent and the concentrate is diluted with solvent to the desired concentration. The active ingredient solution is injected into the abdomen (Boophilus microplus), and the animals are transferred into dishes and stored in a climate-controlled room. The efficacy is assessed by laying of fertile eggs. After 7 days, the efficacy in % is determined. 100% means that none of the ticks has laid any fertile eggs.
# [3] = test system: unfed adult fleas (Ctenocephalides felis); assay: Ctenocephalides felis test (CTECFE); type: in vivo; conditions: 100 ppm in citrated cow's blood, after 2 days; for pest or weed control at 100 ppm: Ctenocephalides felis, 48 h, read-out: efficacy (kill)
# Procedure: Ctenocephalides felis Test ([…]) Solvent: 1 part by weight of dimethyl sulphoxide For the purpose of preparing an appropriate active ingredient formulation, 10 mg of active ingredient are mixed with 0.5 ml of dimethyl sulphoxide. A portion of the concentrate is diluted with citrated cow's blood and the desired concentration is established. About 20 unfed adult fleas (Ctenocephalides felis) are introduced into a chamber closed at the top and bottom with gauze. A metal cylinder, the bottom of which is closed with Parafilm, is placed onto the chamber. The cylinder contains the blood/active ingredient preparation, which can be imbibed by the fleas through the Parafilm membrane. After 2 days, the kill in % is determined. 100% means that all fleas have been killed; 0% means that none of the fleas have been killed.
# Lucilia cuprina larvae = assay: Lucilia cuprina test (LUCICU); type: in vivo; conditions: 48 h, treated horse meat, after 2 days, read-out: efficacy (kill)
# Procedure: (§1) Lucilia cuprina Test (LUCICU) Solvent: dimethyl sulphoxide To prepare an appropriate active ingredient formulation, 10 mg of active ingredient are mixed with 0.5 ml of dimethyl sulphoxide and the concentrate is diluted with water to the desired concentration. Vessels containing horse meat treated with the active ingredient preparation of the desired concentration are populated with about 20 Lucilia cuprina larvae. After 2 days, the kill in % is determined. 100% means that all of the larvae have been killed; 0% means that none of the larvae have been killed.
# adult Musca domestica = assay: Musca domestica test; type: in vivo; conditions: after 2 days
# Procedure: as §1, with “Musca domestica” for “Lucilia cuprina”, “Test” for “Test (LUCICU)”, “a sponge” for “horse meat”, “adult Musca domestica.” for “about 20 Lucilia cuprina larvae.”, “flies” for “larvae”
# [4] = test system: larvae of the mustard beetle (Phaedon cochleariae); assay: Phaedon test (PHAECO spray treatment); type: in vivo; conditions: Chinese cabbage discs, after 7 days; for pest or weed control at 500 g/ha: Phaedon cochleariae, 168 h, read-out: efficacy; for efficacy: 500 g/ha
# Procedure: Phaedon Test ([…] Spray Treatment) Solvent: 78.0 parts by weight of acetone • • 1.5 parts by weight of dimethylformamide Emulsifier: 0.5 part by weight of alkylaryl polyglycol ether To prepare an appropriate active ingredient preparation, 1 part by weight of active ingredient is mixed with the stated amounts of solvent and emulsifier, and the concentrate is diluted with emulsifier-containing water to the desired concentration. Discs of Chinese cabbage (Brassica pekinensis) are sprayed with an active ingredient preparation of the desired concentration and, after drying, populated with larvae of the mustard beetle (Phaedon cochleariae). After 7 days, the efficacy in % is determined. 100% means that all beetle larvae have been killed; 0% means that none of the beetle larvae have been killed.
# [5] = test system: red spider mite (Tetranychus urticae); assay: Tetranychus test, OP-resistant (TETRUR spray treatment); type: in vivo; conditions: bean leaf discs, after 6 days; for pest or weed control at 500 g/ha: Tetranychus urticae, foliar, 144 h, read-out: efficacy
# Procedure: Tetranychus Test, OP-Resistant (TETRUR Spray Treatment)
# Solvent: 78.0 parts by weight of acetone • • 1.5 parts by weight of dimethylformamide
# Emulsifier: 0.5 part by weight of alkylaryl polyglycol ether
# To prepare an appropriate active ingredient preparation, 1 part by weight of active ingredient is mixed with the stated amounts of solvent and emulsifier, and the concentrate is diluted with emulsifier-containing water to the desired concentration. Discs of bean leaves (Phaseolus vulgaris) infested by all stages of the red spider mite (Tetranychus urticae) are sprayed with an active ingredient preparation of the desired concentration. After 6 days, the efficacy in % is determined. 100% means that all spider mites have been killed; 0% means that none of the spider mites have been killed.
# [6] = test system: green peach aphid (Myzus persicae); assay: Myzus test (MYZUPE spray treatment); type: in vivo; conditions: Chinese cabbage discs, after 6 days; for efficacy: 500 g/ha
# Procedure: Myzus Test (MYZUPE Spray Treatment) Solvent: 78 parts by weight of acetone • • 1.5 parts by weight of dimethylformamide Emulsifier: 0.5 part by weight of alkylaryl polyglycol ether To prepare an appropriate active ingredient preparation, 1 part by weight of active ingredient is mixed with the stated amounts of solvent and emulsifier, and the concentrate is diluted with emulsifier-containing water to the desired concentration. Discs of Chinese cabbage (Brassica pekinensis) infested by all stages of the green peach aphid (Myzus persicae) are sprayed with an active ingredient preparation of the desired concentration. After 6 days, the efficacy in % is determined. 100% means that all of the aphids have been destroyed; 0% means that none of the aphids have been destroyed.
# [7] = test system: caterpillars of the armyworm (Spodoptera frugiperda); assay: Spodoptera frugiperda test (SPODFR spray treatment); type: in vivo; conditions: maize leaf discs, after 7 days; for efficacy: 500 g/ha; for pest or weed control at 500 g/ha: Spodoptera frugiperda, foliar, 168 h, read-out: efficacy
# Procedure: Spodoptera frugiperda Test (SPODFR Spray Treatment) Solvent: 78.0 parts by weight of acetone • • 1.5 parts by weight of dimethylformamide Emulsifier: 0.5 part by weight of alkylaryl polyglycol ether To prepare an appropriate active ingredient preparation, 1 part by weight of active ingredient is mixed with the stated amounts of solvent and emulsifier, and the concentrate is diluted with emulsifier-containing water to the desired concentration. Discs of maize leaves (Zea mays) are sprayed with an active ingredient preparation of the desired concentration and, after drying, populated with caterpillars of the armyworm (Spodoptera frugiperda). After 7 days, the efficacy in % is determined. 100% means that all caterpillars have been killed; 0% means that none of the caterpillars have been killed.
# [8] = pH 2.7, * LC-MS, acidic range pH 2.7, 0.1% aqueous formic acid and acetonitrile
SMILES,pest or weed control at 0.02 mg (Boophilus microplus) [%],pest or weed control at 100 ppm [3] [%],pest or weed control at 100 ppm (Lucilia cuprina larvae) [%],pest or weed control at 500 g/ha [4] [%],pest or weed control at 500 g/ha ([5]; 500 g/ha) [%],efficacy (kill) (adult Musca domestica; 100 ppm) [%],efficacy [2] [%],efficacy (Boophilus microplus) [%],efficacy [6] [%],efficacy (kill) [3] [%],efficacy [4] [%],efficacy [7] [%],efficacy ([5]; 500 g/ha) [%],other results
COc1nccnc1-n1nc(C(F)(F)F)c(-c2ccc(Br)cc2)c1N [Ex. 2],100,90,100,100,100,,,,,,,,,"chromatographic logP ([1]; pH 7.8, *** LC-MS, neutral range pH 7.8, 0.001 molar aqueous ammonium hydrogencarbonate and acetonitrile): 3.4; pest or weed control at 100 ppm [2]: 100%; efficacy (kill) (adult Musca domestica; 20 ppm): 80%"
CCOc1nccnc1-n1nc(C(F)(F)F)c(-c2ccc(Br)cc2)c1N [Ex. 5],100,,100,100,80,80,,,,,,,,"chromatographic logP ([1]; pH 2.3, ** acidic range pH 2.3, 0.1% aqueous phosphoric acid and acetonitrile): 3.6; pest or weed control at 100 ppm [2]: 100%"
C=Cc1nn(-c2nccnc2OC)c(N)c1-c1cc(Cl)cc(Cl)c1 [Ex. 8],,,,,,,90,100,100,,,,,
COc1nccnc1-n1nc(C(F)(F)C(F)(F)F)c(-c2cc(Cl)cc(C(F)(F)F)c2)c1N [Ex. 15],,,,,,95,100,100,100,95,100,100,100,
COc1nccnc1-n1nc(C(F)(F)Cl)c(-c2cc(Cl)cc(C(F)(F)F)c2)c1N [Ex. 17],,,,,,100,100,100,100,100,100,100,100,
COc1nccnc1-n1nc(C(F)(F)F)c(-c2ccc(Cl)c(C(F)(F)F)c2)c1N [Ex. 18],,,,,,,100,100,90,,100,83,100,
COc1nccnc1-n1nc(C(C)(F)F)c(-c2ccc(Cl)c(C(F)(F)F)c2)c1N [Ex. 20],,,,,,,100,100,100,,100,100,100,
COc1nccnc1-n1nc(C(F)(F)F)c(-c2cc(Br)cc(Br)c2)c1N [Ex. 22],100,95,100,100,100,,,,,,,,,"chromatographic logP [1, 8]: 4.1; pest or weed control at 100 ppm [2]: 95%; pest or weed control at 500 g/ha ([6]; Myzus persicae, 144 h, read-out: efficacy): 100%; pest or weed control at 500 g/ha [7]: 100%"
COc1nccnc1-n1nc(C(F)(F)C(F)(F)OC)c(-c2cc(Cl)cc(C(F)(F)F)c2)c1N [Ex. 47],,,,,,80,100,100,80,100,100,100,100,
COc1cc(-c2c(C(F)(F)C(F)(F)F)nn(-c3nccnc3OC)c2N)cc(Cl)c1OC [Ex. 51],100,100,100,100,80,,,,,,,,,"chromatographic logP [1, 8]: 3.8; pest or weed control at 100 ppm [2]: 100%; pest or weed control at 500 g/ha [7]: 100%"
COc1nccnc1-n1nc(C(F)(F)F)c(-c2cc(Br)c3c(c2)OCCO3)c1N [Ex. 132],,,,,,80,100,100,,100,100,100,80,
COc1nccnc1-n1nc(C(F)(F)F)c(-c2cc(Cl)c3c(c2)OCCO3)c1N [Ex. 133],,,,,,,95,100,,100,100,100,,efficacy (kill) (adult Musca domestica; 20 ppm): 80%; efficacy ([5]; 100 g/ha): 90%
COc1nccnc1-n1nc(C(F)(F)F)c(-c2cc(I)c3c(c2)OCO3)c1N [Ex. 139],100,100,100,100,80,,,,,,,,,"chromatographic logP [1, 8]: 3.27; pest or weed control at 500 g/ha [7]: 100%"
COc1cc(-c2c(C(F)(F)F)nn(-c3nccnc3OC)c2N)cc(Cl)c1OC [Ex. 141],100,100,100,100,100,,,,,,,,,"chromatographic logP [1, 8]: 3.22; efficacy (kill) (adult Musca domestica; 20 ppm): 80%; pest or weed control at 500 g/ha [7]: 100%"
